“And” between values parts separate entries of the source, which are not always exact repeats. Equal entries are not always repeated.
Experiments:
[1] = target: T1, prostaglandin D2 (PGD2) receptor (Homo sapiens, UniProt Q9Y5Y4); assay: Functional cAMP production assay, PGD2 receptor; assay type: cell-based; details: replicate values
T1 sequence (Q9Y5Y4 1-395): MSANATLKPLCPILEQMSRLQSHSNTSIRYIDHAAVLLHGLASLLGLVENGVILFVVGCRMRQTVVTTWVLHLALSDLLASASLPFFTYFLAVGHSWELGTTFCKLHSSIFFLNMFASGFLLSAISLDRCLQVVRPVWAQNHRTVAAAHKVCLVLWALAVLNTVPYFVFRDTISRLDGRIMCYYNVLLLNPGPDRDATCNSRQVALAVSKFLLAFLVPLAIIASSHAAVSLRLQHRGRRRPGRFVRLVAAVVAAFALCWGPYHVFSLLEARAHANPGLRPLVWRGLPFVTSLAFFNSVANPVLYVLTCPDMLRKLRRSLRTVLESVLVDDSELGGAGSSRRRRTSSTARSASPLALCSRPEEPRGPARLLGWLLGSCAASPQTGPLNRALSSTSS

[2] = target: T2, Thromboxane A2 (TP) receptor (Homo sapiens, UniProt P21731); assay: Functional cAMP production assay, TP receptor; assay type: cell-based; details: agonist alone, replicate columns
T2 sequence (P21731 1-343): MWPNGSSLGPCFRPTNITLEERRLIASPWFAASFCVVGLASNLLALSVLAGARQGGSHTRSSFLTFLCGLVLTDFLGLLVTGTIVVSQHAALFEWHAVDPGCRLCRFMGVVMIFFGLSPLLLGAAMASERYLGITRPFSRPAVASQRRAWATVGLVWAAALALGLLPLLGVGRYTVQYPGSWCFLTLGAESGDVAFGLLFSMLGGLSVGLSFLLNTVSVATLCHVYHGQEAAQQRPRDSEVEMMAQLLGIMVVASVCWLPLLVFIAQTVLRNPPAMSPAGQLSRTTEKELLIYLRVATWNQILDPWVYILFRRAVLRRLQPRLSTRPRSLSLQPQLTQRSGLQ

EP4R [3] = target: T3, EP4R (Homo sapiens, UniProt P35408); assay: cell-based
T3 construct: Tango fusion cassette (only 'tango' is printed); expressed in transfected cells; host or cells: HTLA cells (tTA-dependent luciferase reporter, β-arrestin2-TEV fusion)
T3 sequence (P35408 whole entry, the tested form may be a part): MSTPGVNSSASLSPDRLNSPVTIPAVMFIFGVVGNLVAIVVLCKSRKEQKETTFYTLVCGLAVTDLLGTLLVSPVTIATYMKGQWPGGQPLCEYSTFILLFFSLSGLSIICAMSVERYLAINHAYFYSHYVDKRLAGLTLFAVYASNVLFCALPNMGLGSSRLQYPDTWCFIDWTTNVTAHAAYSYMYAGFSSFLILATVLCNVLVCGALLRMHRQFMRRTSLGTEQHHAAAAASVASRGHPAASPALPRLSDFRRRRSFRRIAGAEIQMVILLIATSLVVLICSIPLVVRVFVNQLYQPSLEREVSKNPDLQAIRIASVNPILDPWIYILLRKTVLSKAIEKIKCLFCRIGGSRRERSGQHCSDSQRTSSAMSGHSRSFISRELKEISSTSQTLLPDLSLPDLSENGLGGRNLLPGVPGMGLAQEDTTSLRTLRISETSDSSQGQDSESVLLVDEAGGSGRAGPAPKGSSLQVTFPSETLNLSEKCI

wild-type EP4R = wild-type EP4R (Homo sapiens, UniProt P35408); assay: cell-based
wild-type EP4R, sequence (P35408 whole entry): as the sequence (P35408 whole entry, the tested form may be a part) above

EP4R [4] = target: T3, EP4R; assay: biochemical; assay type: binding
EP4R [5] = target: T3, EP4R; assay: PRESTO-Tango β-arrestin2 recruitment assay; assay type: cell-based
EP4R R316A mutant = target: T4, EP4R R316A mutant (Homo sapiens, UniProt P35408, R316A); assay: BRET EP4R-arrestin interaction reporter assay, R316A mutant; assay type: cell-based; details: agonist mode
T4 construct: expressed in transfected cells; host or cells: HEK cells, transient
T4 sequence (P35408 whole entry R316A): as the sequence (P35408 whole entry, the tested form may be a part) above, with R316A counted along it
Description: three independent experiments. Source data are provided as a Source Data file.
(1 picture or pasted object on this page, not shown here)

CCCCC[C@H](O)/C=C/[C@H]1C(=O)C[C@H](O)[C@@H]1C/C=C\CCCC(=O)O [PGD2]
Prostaglandin D2 receptor response, drug alone ([1]; Log[Drug] -7): 0.6033 and 0.644 and 0.6961 and 0.6919
Prostaglandin D2 receptor response, drug alone ([1]; Log[Drug] -7.52): 0.797 and 0.93 and 0.9088 and 0.9243 and 0.8431 and 0.8125 and 0.8754 and 0.8197 and 0.9698 and 0.7088 and 0.7525 and 0.7962
Prostaglandin D2 receptor response, drug alone ([1]; Log[Drug] -8): 0.9354 and 1 and 1.006 and 1.122 and 0.9207 and 0.9404 and 0.8901 and 0.9489 and 0.8787 and 1.018 and 0.7261 and 1.1394
Prostaglandin D2 receptor response, drug alone ([1]; Log[Drug] -8.52): 0.9328 and 0.9897 and 1.022 and 0.9062 and 0.7756 and 1.181 and 0.8387 and 1.0826 and 1.099 and 1.025 and 0.9559 and 0.8192
Prostaglandin D2 receptor response, drug alone ([1]; Log[Drug] -9): 1.112 and 0.9671 and 1.1328 and 0.9787 and 1.031 and 1.15 and 0.9594 and 0.9527 and 0.952 and 0.9619 and 1.007 and 0.8917
Prostaglandin D2 receptor response, drug alone ([1]; Log[Drug] -9.52): 0.8441 and 1.142 and 1.077 and 0.9738 and 0.9345 and 0.9535 and 0.9143 and 1.094 and 0.8709 and 1.005 and 0.9652 and 0.9465
Prostaglandin D2 receptor response, drug alone ([1]; Log[Drug] -10): 1.003 (2×) and 1.01 (2×) and 1.029 and 0.9872 and 0.9954 and 1.0644 and 0.8654 and 0.9098 and 1.022 and 1.061
Prostaglandin D2 receptor response, drug alone ([1]; Log[Drug] -10.52): 0.9812 and 1.108 and 1.015 and 0.9787 and 0.8969 and 1.051 and 1.01 and 0.8703 and 1.02 and 1.075 and 0.9632 and 0.9209
Prostaglandin D2 receptor response, drug alone ([1]; Log[Drug] -11): 0.9785 and 0.8795 and 0.9671 and 1.005 and 0.997 and 1.114 and 0.9736 and 1.021 and 1.027 and 1.076 and 1.172 and 1.01

CCCCC[C@H](O)/C=C/[C@@H]1[C@@H](C/C=C\CCCC(=O)O)[C@H]2CO[C@@H]1C2 [Compound U46619]
Thromboxane Receptor response, U46619 alone ([2]; Log[Drug] -4.52): 101.694 and 84.622 and 99.9733
Thromboxane Receptor response, U46619 alone ([2]; Log[Drug] -5): 98.3839 and 68.3538 and 108.147 and 95.8866 and 103.858 and 102.233 and 110.843 and 96.4513 and 100.005 and 98.4577 and 94.7206 and 109.077
Thromboxane Receptor response, U46619 alone ([2]; Log[Drug] -5.52): 90.8596 and 73.8682 and 91.1581 and 74.0123 and 88.5137 and 87.193 and 76.6016 and 83.785 and 87.9816 and 86.9707 and 87.4905
Thromboxane Receptor response, U46619 alone ([2]; Log[Drug] -6): 73.0479 and 61.333 and 83.5479 and 72.2309 and 75.4547 and 85.5682 and 93.0317 and 74.9476 and 75.1314 and 67.4734 and 82.2643
Thromboxane Receptor response, U46619 alone ([2]; Log[Drug] -6.52): 53.1945 and 46.9117 and 56.4473 and 51.2866 and 54.1589 and 49.4671 and 53.794 and 49.5996 and 46.1382 and 46.7815 and 52.9845 and 63.6908
Thromboxane Receptor response, U46619 alone ([2]; Log[Drug] -7): 26.7811 (2×) and 28.7836 and 26.1246 and 27.7368 and 28.2234 and 28.3716 and 27.3608 and 24.4507 and 37.3892
Thromboxane Receptor response, U46619 alone ([2]; Log[Drug] -7.52): 6.98 and 11.6509 and 14.4408 and 11.9391 and 9.265 and 14.6944 and 12.5961 and 11.3627
Thromboxane Receptor response, U46619 alone ([2]; Log[Drug] -8): 3.852 and 4.407 and 5.259 and 6.346 and 4.095 and 3.487 and 3.973 and 12.9637 and 7.1283 and 8.507 and 7.772 and 8.062
Thromboxane Receptor response, U46619 alone ([2]; Log[Drug] -8.52): 0.6979 and 0.4256 and 1.264 and 1.489 and 0.4372 and 0.7674 and -0.6982 and -0.1162 and -0.5757 and -0.4127
Thromboxane Receptor response, U46619 alone ([2]; Log[Drug] -9): 1.749 and 1.539 and -0.4127 and -0.8139 and 0.03755 and 0.2374 and 1.155 and 2.074 and -0.008962 and 0.4505 and -0.2293

Cc1cc(C(=O)N[C@H]2CC[C@H](C(=O)O)CCC2(F)F)c(C)n1-c1ccccc1 [Compound 83, CC1=CC(C(=O)N[C@H]2CC[C@@H](CCC2(F)F)C(=O)O)=C(C)N1C=3C=CC=CC3]
Kb (EP4R [3]): > 10 µM
IC50 (wild-type EP4R): 3.39 µM
Ki (wild-type EP4R): 0.678 µM
Ki (EP4R [4]): > 10 µM
PRESTO-Tango -logIC50 (EP4R [5]): unstable
IC50 (EP4R [5]; PRESTO-Tango IC50 (nM)): > 10000 nM

CCCCC[C@H](O)/C=C/[C@H]1[C@H](O)CC(=O)[C@@H]1C/C=C\CCCC(=O)O [PGE2, prostaglandin E2, reference compound]
activation of R316A mutant receptor (EP4R R316A mutant): no longer
EC80 of PGE2 (wild-type EP4R): 0.008 µM
EC80 of PGE2 (EP4R [5]; agonist): 0.008 µM
